Data as given in patent US20240034731A1, “AZA-QUINAZOLINE COMPOUNDS AND METHODS OF USE” (Iambic Therapeutics, Inc., priority 2022, published 2024).

Experiments:
CDK4/Cyclin D1 = CDK4/Cyclin D1 (Homo sapiens (Human), UniProt P11802); assay: CDK4/Cyclin D1 CHEF Assay (AQT0258 peptide); type: biochemical; settings: 200 uM ATP, read-out: CDK4/ CyclinD1 AQT IC50
In short: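 Sox-labelled peptide AQT0258 phosphorylation read as chelation-enhanced fluorescence (ex 360/em 485 nm) with Mg(II). Enzyme preincubated with inhibitor 30 min at 22°C, substrate added, 3 h at 22°C; IC50 from four-parameter fit of fractional velocity versus inhibitor concentration.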

CDK6/Cyclin D3 = CDK6/Cyclin D3 (Homo sapiens (Human), UniProt Q00534); assay: CDK6/Cyclin D3 ADP-Glo Kinase Assay; type: biochemical; settings: 100 uM ATP, read-out: CDK6/ CyclinD3 IC50
In short: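 ADP-Glo luminescence measured ADP produced by CDK6/Cyclin D3 in a 90-min room-temperature reaction started with ATP-containing substrate, after 30-min enzyme–inhibitor pre-incubation. Fractional velocity was plotted against inhibitor concentration and fitted to a four-parameter IC50 model.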

CDK1/Cyclin B1 = CDK1/Cyclin B1 (Homo sapiens (Human), UniProt P06493); assay: CDK1/Cyclin B1 ADP-Glo Kinase Assay; type: biochemical; settings: ADP-Glo, 80 uM ATP; read-out: CDK1 Cyclin B1 IC50
In short: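 ADP-Glo luminescent readout of ADP production, with IC50 fitted by a four-parameter equation to fractional velocity against inhibitor concentration. Reaction started with ATP-containing substrate after a 30-minute enzyme–inhibitor pre-incubation and stopped after 90 minutes, both at room temperature.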

OVCAR-3 cells = assay: Cell Growth Inhibition, OVCAR-3 (CellTiterGlo, 6 days); type: cell-based; settings: Homo sapiens, 144 h, OVCAR-3, 6-day treatment
In short: (§1)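 IC50 from four-parameter, variable-slope fits of % growth inhibition, derived from CellTiterGlo 2.0 luminescence relative to control. Compounds, usually 10-10,000 nM in half-log steps, stayed 6 days at 37 °C, 5% CO2 with 500 MCF-7 or OVCAR-3 cells/well in 10% FBS RPMI.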

CDK2/Cyclin E1 = CDK2/Cyclin E1 (Homo sapiens (Human), UniProt P24941); assay: CDK2/Cyclin E1 Full length ADP-Glo Kinase Assay; type: biochemical; settings: 20 uM ATP, read-out: CDK2/ CyclinE1 IC50
In short: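 ADP-Glo luminescence (ATP depletion, then ADP-to-light conversion) quantified kinase turnover after a 90 min room-temperature reaction started by ATP/substrate, following 30 min enzyme–inhibitor preincubation. Enzyme: full-length CDK2/cyclin E1; IC50 fitted with a four-parameter equation on fractional velocity.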

MCF-7 cells = assay: Cell Growth Inhibition, MCF-7 (CellTiterGlo, 6 days); type: cell-based; settings: Homo sapiens, MCF7, 144 h, MCF-7, 6-day treatment
In short: as §1

CDK4/Cyclin D1, sequence (P11802 whole entry): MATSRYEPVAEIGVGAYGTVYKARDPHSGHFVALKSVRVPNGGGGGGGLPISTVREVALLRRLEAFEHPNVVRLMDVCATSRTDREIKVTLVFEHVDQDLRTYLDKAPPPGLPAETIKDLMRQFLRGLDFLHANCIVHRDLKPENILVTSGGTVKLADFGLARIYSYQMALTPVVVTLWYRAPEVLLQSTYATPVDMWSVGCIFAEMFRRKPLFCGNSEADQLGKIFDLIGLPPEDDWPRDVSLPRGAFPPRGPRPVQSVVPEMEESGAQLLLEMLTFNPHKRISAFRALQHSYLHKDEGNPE
CDK4/Cyclin D1, sequence (P24385 whole entry partner): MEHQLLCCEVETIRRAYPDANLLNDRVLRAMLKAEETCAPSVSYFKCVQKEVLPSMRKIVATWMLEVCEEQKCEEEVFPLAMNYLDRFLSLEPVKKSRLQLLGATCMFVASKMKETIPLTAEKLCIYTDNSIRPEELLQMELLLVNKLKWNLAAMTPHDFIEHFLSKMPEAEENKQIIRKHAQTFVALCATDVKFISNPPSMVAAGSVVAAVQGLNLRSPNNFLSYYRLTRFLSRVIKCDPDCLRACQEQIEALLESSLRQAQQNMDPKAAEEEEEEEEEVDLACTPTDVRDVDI
CDK6/Cyclin D3, sequence (Q00534 whole entry): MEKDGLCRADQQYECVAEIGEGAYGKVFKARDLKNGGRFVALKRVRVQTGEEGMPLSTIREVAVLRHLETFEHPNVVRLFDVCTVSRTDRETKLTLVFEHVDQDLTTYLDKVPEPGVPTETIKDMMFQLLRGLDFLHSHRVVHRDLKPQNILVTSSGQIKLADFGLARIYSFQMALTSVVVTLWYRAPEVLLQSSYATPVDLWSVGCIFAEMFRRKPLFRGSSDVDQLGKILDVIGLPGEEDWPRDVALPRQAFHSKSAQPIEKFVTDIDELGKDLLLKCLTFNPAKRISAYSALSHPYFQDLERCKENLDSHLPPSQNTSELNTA
CDK6/Cyclin D3, sequence (P30281 whole entry partner): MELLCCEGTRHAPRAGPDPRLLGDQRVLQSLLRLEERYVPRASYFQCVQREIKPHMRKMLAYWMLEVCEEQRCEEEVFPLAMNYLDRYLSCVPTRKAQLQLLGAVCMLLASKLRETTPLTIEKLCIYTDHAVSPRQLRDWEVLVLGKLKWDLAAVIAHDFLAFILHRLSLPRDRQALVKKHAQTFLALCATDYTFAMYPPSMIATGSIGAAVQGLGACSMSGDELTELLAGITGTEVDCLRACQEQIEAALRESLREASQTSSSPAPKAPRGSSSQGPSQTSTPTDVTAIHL
CDK1/Cyclin B1, sequence (P06493 whole entry): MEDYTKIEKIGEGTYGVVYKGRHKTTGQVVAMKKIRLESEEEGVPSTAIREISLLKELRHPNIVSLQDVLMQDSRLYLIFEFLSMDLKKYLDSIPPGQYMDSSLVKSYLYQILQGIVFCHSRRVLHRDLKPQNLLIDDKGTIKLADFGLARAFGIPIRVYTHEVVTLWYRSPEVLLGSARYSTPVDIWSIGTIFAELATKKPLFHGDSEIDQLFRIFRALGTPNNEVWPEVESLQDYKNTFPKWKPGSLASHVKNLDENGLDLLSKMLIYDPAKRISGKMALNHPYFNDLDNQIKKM
CDK1/Cyclin B1, sequence (P14635 whole entry partner): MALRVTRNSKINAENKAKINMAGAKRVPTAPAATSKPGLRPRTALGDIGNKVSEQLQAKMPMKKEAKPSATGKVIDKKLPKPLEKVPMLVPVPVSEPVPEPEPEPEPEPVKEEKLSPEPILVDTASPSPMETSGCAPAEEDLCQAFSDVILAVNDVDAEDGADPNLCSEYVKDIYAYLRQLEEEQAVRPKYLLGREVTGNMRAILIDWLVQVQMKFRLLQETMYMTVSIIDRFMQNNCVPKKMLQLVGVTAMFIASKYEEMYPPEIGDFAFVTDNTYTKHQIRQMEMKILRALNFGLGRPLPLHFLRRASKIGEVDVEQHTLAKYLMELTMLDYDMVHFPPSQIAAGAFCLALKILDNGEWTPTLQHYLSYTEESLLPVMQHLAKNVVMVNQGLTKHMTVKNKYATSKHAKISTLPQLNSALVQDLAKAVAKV

SMILES | IC50 (CDK4/Cyclin D1) | IC50 (CDK6/Cyclin D3) | IC50 (CDK1/Cyclin B1) | IC50 (OVCAR-3 cells) | IC50 (CDK2/Cyclin E1) | IC50 (MCF-7 cells)
CS(=O)(=O)N1CCC(Nc2ncc3cc(C(F)F)nc(N4CC5(CNCCC5(F)F)C4)c3n2)CC1 [Compound 65, 8-(9,9-difluoro-2,6-diazaspiro[3.5]nonan-2-yl)-6-(difluoromethyl)-N-(1-(methylsulfonyl)piperidin-4-yl)pyrido[3,4-d]pyrimidin-2-amine] | < 200 nM | < 200 nM | < 200 nM | 200 to 500 nM | < 200 nM | 200 to 500 nM
Cc1cc2cnc(NC3CCN(S(=O)(=O)CCC4(C)CC4)CC3)nc2c(N2CC(F)(F)C3(CNC3)C2)n1 [Compound 67, 8-(8,8-difluoro-2,6-diazaspiro[3.4]octan-6-yl)-6-methyl-N-(1-((2-(1-methylcyclopropyl)ethyl)sulfonyl)piperidin-4-yl)pyrido[3,4-d]pyrimidin-2-amine] | < 200 nM | 200 to 500 nM | 200 to 500 nM | > 2000 nM | < 200 nM | > 2000 nM
Cc1cc2cnc(NC3CCN(S(=O)(=O)C4CC4)CC3)nc2c(N2CC(N3CC(F)C3)C2)n1 [Compound 72, N-(1-(cyclopropylsulfonyl)piperidin-4-yl)-8-(3-fluoro-[1,3′-biazetidin]-l′-yl)-6-methylpyrido[3,4-d]pyrimidin-2-amine] | 200 to 500 nM | 200 to 500 nM | 500 to 2000 nM | > 2000 nM | < 200 nM | > 2000 nM
Cc1cc2cnc(NC3CCN(S(=O)(=O)C4CC4)CC3)nc2c(N2CC(CS(C)(=O)=O)C2)n1 [Compound 74, N-(1-(cyclopropylsulfonyl)piperidin-4-yl)-6-methyl-8-(3-((methylsulfonyl)methyl)azetidin-1-yl)pyrido[3,4-d]pyrimidin-2-amine] | 200 to 500 nM | 200 to 500 nM | 500 to 2000 nM | > 2000 nM | < 200 nM | > 2000 nM
Cc1cc2cnc(NC3CCN(S(C)(=O)=O)CC3)nc2c(N2CC3(CCC(=O)N3)C2)n1 [Compound 77, 2-(6-methyl-2-((1-(methylsulfonyl)piperidin-4-yl)amino)pyrido[3,4-d]pyrimidin-8-yl)-2,5-diazaspiro[3.4]octan-6-one] | < 200 nM | < 200 nM | 200 to 500 nM | > 2000 nM | < 200 nM | > 2000 nM
Cc1cc2cnc(NC3CCN(S(=O)(=O)C4CC4)CC3)nc2c(N2CC3(C2)CC(C)(O)C3)n1 [Compound 78, 2-(2-((1-(cyclopropylsulfonyl)piperidin-4-yl)amino)-6-methylpyrido[3,4-d]pyrimidin-8-yl)-6-methyl-2-azaspiro[3.3]heptan-6-ol] | < 200 nM | 200 to 500 nM | 200 to 500 nM | 500 to 2000 nM | < 200 nM | 500 to 2000 nM
Cc1cc2cnc(NC3CCN(S(C)(=O)=O)CC3)nc2c(N2CC3(C2)CC(C)(O)C3)n1 [Compound 79, 6-methyl-2-(6-methyl-2-((1-(methylsulfonyl)piperidin-4-yl)amino)pyrido[3,4-d]pyrimidin-8-yl)-2-azaspiro[3.3]heptan-6-ol] | < 200 nM | 200 to 500 nM | 200 to 500 nM | 500 to 2000 nM | < 200 nM | > 2000 nM
Cc1cc2cnc(Nc3ccc(CS(C)(=O)=O)cc3)nc2c(N2CC(O)(C3CC3)C2)n1 [Compound 83, 3-cyclopropyl-1-(6-methyl-2-((4-((methylsulfonyl)methyl)phenyl)amino)pyrido[3,4-d]pyrimidin-8-yl)azetidin-3-ol] | < 200 nM | < 200 nM | 200 to 500 nM | > 2000 nM | < 200 nM | > 2000 nM
Cc1cc2cnc(NC3CCN(S(C)(=O)=O)CC3)nc2c(N2CC3(CNCC3(F)F)C2)n1 [Compound 85, 8-(8,8-difluoro-2,6-diazaspiro[3.4]octan-2-yl)-6-methyl-N-(1-(methylsulfonyl)piperidin-4-yl)pyrido[3,4-d]pyrimidin-2-amine] | < 200 nM | < 200 nM | < 200 nM | 500 to 2000 nM | < 200 nM | 500 to 2000 nM
Cc1cc2cnc(N[C@@H]3CCOC[C@H]3O)nc2c(N2CC(O)(C3CC3)C2)n1 [Compound 86, 3-cyclopropyl-1-(2-(((3S,4R)-3-hydroxytetrahydro-2H-pyran-4-yl)amino)-6-methylpyrido[3,4-d]pyrimidin-8-yl)azetidin-3-ol] | < 200 nM | 200 to 500 nM | > 2000 nM | > 2000 nM | 200 to 500 nM | > 2000 nM
Cc1cc2cnc(NC3CCN(S(=O)(=O)c4cnn(C)c4)CC3)nc2c(N2CC3(CCNCC3(F)F)C2)n1 [Compound 87, 8-(5,5-difluoro-2,7-diazaspiro[3.5]nonan-2-yl)-6-methyl-N-(1-((1-methyl-1H-pyrazol-4-yl)sulfonyl)piperidin-4-yl)pyrido[3,4-d]pyrimidin-2-amine] | < 200 nM | < 200 nM | < 200 nM | 200 to 500 nM | < 200 nM | 500 to 2000 nM

Continued, values first:

IC50 (CDK4/Cyclin D1) | IC50 (CDK6/Cyclin D3) | IC50 (CDK1/Cyclin B1) | IC50 (OVCAR-3 cells) | IC50 (CDK2/Cyclin E1) | IC50 (MCF-7 cells) | SMILES
< 200 nM | < 200 nM | 500 to 2000 nM | 500 to 2000 nM | < 200 nM | 500 to 2000 nM | Cc1cc2cnc(NC3CCN(S(=O)(=O)C4CC4)CC3)nc2c(N2CC3(CC(O)C3)C2)n1 [Compound 66, 2-(2-((1-(cyclopropylsulfonyl)piperidin-4-yl)amino)-6-methylpyrido[3,4-d]pyrimidin-8-yl)-2-azaspiro[3.3]heptan-6-ol]
< 200 nM | < 200 nM | < 200 nM | 500 to 2000 nM | < 200 nM | 500 to 2000 nM | CS(=O)(=O)N1CCC(Nc2ncc3cc(C4CC4)nc(C4CC5(CNCCO5)C4)c3n2)CC1 (stereo not drawn) [Compound 70, 6-cyclopropyl-N-(1-(methylsulfonyl)piperidin-4-yl)-8-(5-oxa-8-azaspiro[3.5]nonan-2-yl)pyrido[3,4-d]pyrimidin-2-amine]
< 200 nM | < 200 nM | 200 to 500 nM | > 2000 nM | < 200 nM | > 2000 nM | COC1CC2(C1)CN(c1nc(C)cc3cnc(NC4CCN(S(=O)(=O)C5CC5)CC4)nc13)C2 [Compound 71, N-(1-(cyclopropylsulfonyl)piperidin-4-yl)-8-(6-methoxy-2-azaspiro[3.3]heptan-2-yl)-6-methylpyrido[3,4-d]pyrimidin-2-amine]
< 200 nM | 200 to 500 nM | 500 to 2000 nM | > 2000 nM | < 200 nM | > 2000 nM | Cc1cc2cnc(NC3CCN(S(C)(=O)=O)CC3)nc2c(N2CC3(CC(O)C3)C2)n1 [Compound 73, 2-(6-methyl-2-((1-(methylsulfonyl)piperidin-4-yl)amino)pyrido[3,4-d]pyrimidin-8-yl)-2-azaspiro[3.3]heptan-6-ol]
< 200 nM | < 200 nM | > 2000 nM | > 2000 nM | < 200 nM | > 2000 nM | COC1CC2(C1)CN(c1nc(C3CC3)cc3cnc(NC4CCN(S(C)(=O)=O)CC4)nc13)C2 [Compound 75, 6-cyclopropyl-8-(6-methoxy-2-azaspiro[3.3]heptan-2-yl)-N-(1-(methylsulfonyl)piperidin-4-yl)pyrido[3,4-d]pyrimidin-2-amine]
< 200 nM | < 200 nM | 200 to 500 nM | > 2000 nM | < 200 nM | 500 to 2000 nM | COC1CC2(C1)CN(c1nc(C)cc3cnc(NC4CCN(S(C)(=O)=O)CC4)nc13)C2 [Compound 76, 8-(6-methoxy-2-azaspiro[3.3]heptan-2-yl)-6-methyl-N-(1-(methylsulfonyl)piperidin-4-yl)pyrido[3,4-d]pyrimidin-2-amine]
< 200 nM | < 200 nM | 500 to 2000 nM | > 2000 nM | < 200 nM | > 2000 nM | COCCN1CC2(CC(c3nc(C4CC4)cc4cnc(NC5CCN(S(=O)(=O)CC6CCC6)CC5)nc34)C2)C1 [Compound 80, N-(1-((cyclobutylmethyl)sulfonyl)piperidin-4-yl)-6-cyclopropyl-8-(2-(2-methoxyethyl)-2-azaspiro[3.3]heptan-6-yl)pyrido[3,4-d]pyrimidin-2-amine]
< 200 nM | < 200 nM | 200 to 500 nM | 500 to 2000 nM | < 200 nM | 500 to 2000 nM | Cc1cc2cnc(NC3CCN(S(C)(=O)=O)CC3)nc2c(C2CC3(C2)CN(C)CCO3)n1 (stereo not drawn) [Compound 84, 6-methyl-8-(8-methyl-5-oxa-8-azaspiro[3.5]nonan-2-yl)-N-(1-(methylsulfonyl)piperidin-4-yl)pyrido[3,4-d]pyrimidin-2-amine]
